Data taken from patent US20240043928A1, “BIOMARKERS FOR MYELODYSPLASTIC SYNDROME (MDS) AND METHODS OF USING THE SAME” (Eisai R&D Management Co., Ltd., priority 2020, published 2024).

Assay: Phase I study NCT02841540: treatment-related adverse events and dose-limiting toxicities
Format: in vivo, human
From the text: Patients were enrolled using a conventional 3+3 dose escalation phase I design, with escalations based on a modified Fibonacci sequence scheme (Storer Biometrics. 1989;45(3):925-937). Dose escalations continued until a dose level at which ≥2 patients of the 3-6 enrolled experienced a dose-limiting toxicity (DLT). Maximally tolerated dose (MTD) was defined as the highest dose at which no more than 1 out of 6 patients experienced a DLT. DLTs were defined as any of the following: any Grade 3 or greater study drug-related non-hematologic toxicity except for Grade 3 nausea, vomiting, fatigue, or diarrhea that resolved to Grade 1 or less within 1 week; failure to administer at least 70% of the protocol-specific dose; or prolonged myelosuppression with the persistence of Grade 4 cytopenia in the absence of persistent leukemia or blast increase 21 or more days after suspending dosing. DLTs were assessed during the first 28 days using National Cancer Institute (NCI) Common Toxicity Criteria for Adverse Events (CTCAE) version 4.03.
The primary endpoints measured included occurrence of DLTs, the type and frequency of treatment-emergent adverse events (TEAEs), and serious adverse events (SAEs). Key secondary endpoints included drug pharmacokinetics (PK) and preliminary antitumor activity, such as the overall response rate (ORR), effect of drug therapy on transfusion requirements, and overall survival (OS). Biomarker analyses and drug pharmacodynamics (PD) were included as exploratory endpoints. […] In addition, a second schedule (Schedule II) of 21 days on therapy and a rest of 7 days without therapy was explored. […] However, when limited clinical activity was observed on Schedule I, Schedule II was introduced to test whether more prolonged spliceosome modulation would lead to higher clinical activity. Each treatment cycle was 28 days in length. Patients could continue treatment until disease progression or development of unacceptable toxicity.
Eligibility criteria included normal vitamin A levels and visual acuity that corrected to 20/40 unless a cataract was present. Ophthalmologic evaluation, including fundoscopic imaging and visual evoked potentials, was performed during study screening and periodically throughout the duration of the trial.

SMILES: C/C(=C\C=C\[C@@H](C)c1ccccn1)[C@H]1OC(=O)C[C@H](O)CC[C@@](C)(O)[C@@H](OC(=O)N2CCN(C)CC2)/C=C/[C@@H]1C [Compound 1, (2S,3S,4E,6S,7R,10R)-7,10-dihydroxy-3,7-dimethyl-12-oxo-2-[(2E,4E,6R)-6-(pyridine-2-yl)hepta-2,4-dien-2-yl]oxacyclododec-4-en-6-yl-4-methylpiperazine-1-carboxylate]
- Any TEAE (treatment-related, all grades) (Schedule II, 7 mg QD, N = 5): 1 (20) n (%)
- Diarrhea (treatment-related TEAE, all grades) (Schedule II, 7 mg QD, N = 5): 1 (20) n (%)
- Dysgeusia (treatment-related TEAE, all grades) (Schedule II, 7 mg QD, N = 5): 0 n (%)
- ECG QTcF prolonged (treatment-related TEAE, all grades) (Schedule II, 7 mg QD, N = 5): 0 n (%)
- Fatigue (treatment-related TEAE, all grades) (Schedule II, 7 mg QD, N = 5): 0 n (%)
- Hypophosphatemia (treatment-related TEAE, all grades) (Schedule II, 7 mg QD, N = 5): 0 n (%)
- Nausea (treatment-related TEAE, all grades) (Schedule II, 7 mg QD, N = 5): 0 n (%)
- Vomiting (treatment-related TEAE, all grades) (Schedule II, 7 mg QD, N = 5): 0 n (%)
- dose dependency of treatment related AEs (Schedule II, 7 mg-20 mg): dose dependency trend
- Any TEAE (treatment-related, all grades) (Schedule II, 12 mg QD, N = 5): 4 (80) n (%)
- Diarrhea (treatment-related TEAE, all grades) (Schedule II, 12 mg QD, N = 5): 1 (20) n (%)
- Dysgeusia (treatment-related TEAE, all grades) (Schedule II, 12 mg QD, N = 5): 1 (20) n (%)
- ECG QTcF prolonged (treatment-related TEAE, all grades) (Schedule II, 12 mg QD, N = 5): 0 n (%)
- Fatigue (treatment-related TEAE, all grades) (Schedule II, 12 mg QD, N = 5): 1 (20) n (%)
- Hypophosphatemia (treatment-related TEAE, all grades) (Schedule II, 12 mg QD, N = 5): 2 (40) n (%)
- Nausea (treatment-related TEAE, all grades) (Schedule II, 12 mg QD, N = 5): 1 (20) n (%)
- Vomiting (treatment-related TEAE, all grades) (Schedule II, 12 mg QD, N = 5): 0 n (%)
- patients with DLT grade 3 sinus bradycardia (Schedule II, 14 mg): 1 of 5
- Any TEAE (treatment-related, all grades) (Schedule II, 14 mg QD, N = 5): 4 (80) n (%)
- Diarrhea (treatment-related TEAE, all grades) (Schedule II, 14 mg QD, N = 5): 2 (40) n (%)
- Dysgeusia (treatment-related TEAE, all grades) (Schedule II, 14 mg QD, N = 5): 0 n (%)
- ECG QTcF prolonged (treatment-related TEAE, all grades) (Schedule II, 14 mg QD, N = 5): 1 (20) n (%)
- Fatigue (treatment-related TEAE, all grades) (Schedule II, 14 mg QD, N = 5): 0 n (%)
- Hypophosphatemia (treatment-related TEAE, all grades) (Schedule II, 14 mg QD, N = 5): 0 n (%)
- Nausea (treatment-related TEAE, all grades) (Schedule II, 14 mg QD, N = 5): 0 n (%)
- Vomiting (treatment-related TEAE, all grades) (Schedule II, 14 mg QD, N = 5): 1 (20) n (%)
- patients with DLTs (Grade 3 QTc prolongation; Grade 3 nausea) (Schedule II, 20 mg): 2 of 4
- subjects reporting grade 3 AEs (Schedule II, 20 mg): 3 of the 4
- Any TEAE (treatment-related, all grades) (Schedule II, 20 mg QD, N = 4): 4 (100) n (%)
- Diarrhea (treatment-related TEAE, all grades) (Schedule II, 20 mg QD, N = 4): 4 (100) n (%)
- Dysgeusia (treatment-related TEAE, all grades) (Schedule II, 20 mg QD, N = 4): 1 (25) n (%)
- ECG QTcF prolonged (treatment-related TEAE, all grades) (Schedule II, 20 mg QD, N = 4): 2 (50) n (%)
- Fatigue (treatment-related TEAE, all grades) (Schedule II, 20 mg QD, N = 4): 1 (25) n (%)
- Hypophosphatemia (treatment-related TEAE, all grades) (Schedule II, 20 mg QD, N = 4): 0 n (%)
- Nausea (treatment-related TEAE, all grades) (Schedule II, 20 mg QD, N = 4): 2 (50) n (%)
- Vomiting (treatment-related TEAE, all grades) (Schedule II, 20 mg QD, N = 4): 3 (75) n (%)
- Anemia (Grade 3 or 4 treatment-related TEAE) (Schedule II, N = 19): 0 n (%)
- ECG QTcF prolonged (Grade 3 or 4 treatment-related TEAE) (Schedule II, N = 19): 1 (5) n (%)
- Fatigue (Grade 3 or 4 treatment-related TEAE) (Schedule II, N = 19): 1 (5) n (%)
- Hypophosphatemia (Grade 3 or 4 treatment-related TEAE) (Schedule II, N = 19): 1 (5) n (%)
- Nausea (Grade 3 or 4 treatment-related TEAE) (Schedule II, N = 19): 1 (5) n (%)
- Platelet count decreased (Grade 3 or 4 treatment-related TEAE) (Schedule II, N = 19): 1 (5) n (%)
- Sinus bradycardia (Grade 3 or 4 treatment-related TEAE) (Schedule II, N = 19): 1 (5) n (%)
- Any TEAE (treatment-related, all grades) (Schedule II, Total, N = 19): 13 (68) n (%)
- Diarrhea (treatment-related TEAE, all grades) (Schedule II, Total, N = 19): 8 (42) n (%)
- Dysgeusia (treatment-related TEAE, all grades) (Schedule II, Total, N = 19): 2 (11) n (%)
- ECG QTcF prolonged (treatment-related TEAE, all grades) (Schedule II, Total, N = 19): 3 (16) n (%)
- Fatigue (treatment-related TEAE, all grades) (Schedule II, Total, N = 19): 2 (11) n (%)
- Hypophosphatemia (treatment-related TEAE, all grades) (Schedule II, Total, N = 19): 2 (11) n (%)
- Nausea (treatment-related TEAE, all grades) (Schedule II, Total, N = 19): 3 (16) n (%)
- Vomiting (treatment-related TEAE, all grades) (Schedule II, Total, N = 19): 4 (21) n (%)
- QTcF (Fridericia method) prolongation, treatment-related TEAE (Schedule II, all patients): 16%
- diarrhea, treatment-related TEAE (Schedule II, all patients): 42%
- dysgeusia, treatment-related TEAE (Schedule II, all patients): 11%
- fatigue, treatment-related TEAE (Schedule II, all patients): 11%
- hypophosphatemia, treatment-related TEAE (Schedule II, all patients): 11%
- nausea, treatment-related TEAE (Schedule II, all patients): 16%
- vomiting, treatment-related TEAE (Schedule II, all patients): 21%
- subjects with treatment related AEs (all grades) (Schedule II, highest dose level tested): 100%
- subjects with treatment related AEs (all grades) (Schedule II, lowest dose level tested): 20%
- patients who experienced an AE characterized as a DLT (both schedules): 6 patients
- subjects reporting treatment related AEs (all grades) (both schedules): 63 subjects
- subjects who reported grade 3 treatment related AEs (both schedules): 12 subjects
- ocular adverse event (in vivo): One event of Grade 3 ocular papilledema was reported, without loss in visual acuity
